This test addresses 5-hydroxytryptamine receptor 2A (Rattus norvegicus, UniProt P14842).

Among the data in BindingDB's records for PubMed 2905002 (Schering-Plough, 1988) are Ki values, retold here.

5-hydroxytryptamine receptor 2A, sequence (P14842 whole entry): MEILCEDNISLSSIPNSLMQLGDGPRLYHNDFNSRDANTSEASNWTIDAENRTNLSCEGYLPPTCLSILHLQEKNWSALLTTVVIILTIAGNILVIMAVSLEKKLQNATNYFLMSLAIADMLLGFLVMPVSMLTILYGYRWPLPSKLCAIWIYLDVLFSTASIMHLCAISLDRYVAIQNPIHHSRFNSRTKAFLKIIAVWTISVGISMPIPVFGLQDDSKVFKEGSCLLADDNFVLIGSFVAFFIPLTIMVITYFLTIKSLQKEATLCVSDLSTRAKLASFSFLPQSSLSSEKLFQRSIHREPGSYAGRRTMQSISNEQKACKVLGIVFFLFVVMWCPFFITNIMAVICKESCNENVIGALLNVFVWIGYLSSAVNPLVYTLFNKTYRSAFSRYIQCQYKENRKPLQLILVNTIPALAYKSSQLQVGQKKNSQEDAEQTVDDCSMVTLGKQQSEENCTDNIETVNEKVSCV

`CN1CCc2cc(Cl)c(O)cc2[C@H]2c3ccccc3CC[C@@H]21` showed a Ki of 321 nM. This counts as sub-micromolar.
In turn, `CN1CCc2cc(Cl)c(O)cc2[C@@H](c2ccccc2)C1` [SCH 23390,R(+)] showed a Ki of 13.1 nM.
